From patent US6469028B1, “Synthesis and use of retinoid compounds having negative hormone and/or anatgonist activities” (Allergan, Inc., priority 1995, dated 2002) come the findings set out here.

What all share (test): Holoreceptor transactivation assay
Assay type in all cases: cell-based

One experiment addresses T1, RARα (Homo sapiens, UniProt P10276).
T1 sequence (P10276 1-462): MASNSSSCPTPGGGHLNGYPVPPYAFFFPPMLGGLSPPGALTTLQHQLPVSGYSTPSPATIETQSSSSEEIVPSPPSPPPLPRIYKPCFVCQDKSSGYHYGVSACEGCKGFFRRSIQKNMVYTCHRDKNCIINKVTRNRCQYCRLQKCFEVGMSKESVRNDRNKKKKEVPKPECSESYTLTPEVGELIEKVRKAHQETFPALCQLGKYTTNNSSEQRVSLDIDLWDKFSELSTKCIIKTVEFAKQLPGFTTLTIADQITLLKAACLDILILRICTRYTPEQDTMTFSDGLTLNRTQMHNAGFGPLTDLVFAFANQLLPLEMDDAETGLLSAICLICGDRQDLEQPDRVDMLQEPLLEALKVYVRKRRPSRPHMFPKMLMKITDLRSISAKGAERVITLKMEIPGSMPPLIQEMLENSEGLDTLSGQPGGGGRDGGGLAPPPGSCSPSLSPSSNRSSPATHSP
On the set-up: expressed in transfected cells; host or cells: CV1 cells. To be noted: relative to all trans retinoic acid; read-out: Transactivation Assay Efficacy (% of RA activity) RARα. The text has this:
(§1) A holoreceptor transactivation assay and a ligand binding assay which measure the antagonist/agonist like activity of the compounds of the invention, or their ability to bind to the several retinoid receptor subtypes, respectively, are described in published PCT Application No. WO93/11755 (particularly on pages 30-33 and 37-41) published on Jun. 24, 1993, the specification of which is also incorporated herein by reference. A description of the holoreceptor transactivation assay is also provided below.
(§2) CV1 cells (5,000 cells/well) were transfected with an RAR reporter plasmid MTV-TREp-LUC (50 ng) along with one of the RAR expression vectors (10 ng) in an automated 96-well format by the calcium phosphate procedure of Heyman et al. Cell 68: 397-406. For RXR-α and RXR-γ transactivation assays, an RXR-responsive reporter plasmid CRBPII-tk-LUC (50 ng) along with the appropriate RXR expression vectors (10 ng) was used substantially as described by Heyman et al. above, and Allegretto et al. J. Biol. Chem. 268: 26625-26633. For RXR-β transactivation assays, an RXR-responsive reporter plasmid CPRE-tk-LUC ([…]) along with RXR-β expression vector ([…]) was used as described in above. These reporters contain DRI elements from human CRBPII and certain DRI elements from promotor, respectively (see Mangelsdorf et al. The Retinoids: Biology Chemistry and Medicine, pp. 319-349, Raven Press Ltd., New York and Heyman et al., cited above). A β-galactosidase (50 ng) expression vector was used as an internal control in the transfections to normalize for variations in transfection efficiency. The cells were transfected in triplicate for 6 hours, followed by incubation with retinoids for 36 hours, and the extracts were assayed for luciferase and […] activities. The detailed experimental procedure for holoreceptor transactivations has been described in Heyman et al. above, and Allegretto et al. cited above. The results obtained in this assay are expressed in EC50 numbers, as they are also in the chimeric receptor transactivation assay. The Heyman et al. Cell 68: 397-406, Allegretto et al. J. Biol. Chem. 268: 26625-26633, and Mangelsdorf et al. The Retinoids: Biology, Chemistry, and Medicine, pp. 319-349, Raven Press Ltd., New York, are expressly incorporated herein by reference. The results of ligand binding assay are expressed in Kd numbers. (See Cheng et al. Biochemical Pharmacology 22: 3099-3108, expressly incorporated herein by reference.)
(§3) A compound should not cause significant activation of a reporter gene through a given receptor subtype (RAR-α, RAR-β or RAR-γ) in the holoreceptor transactivation assay, in order to qualify as an RAR antagonist with utility in the present invention.

For another experiment, the target named is T2, RARβ (Homo sapiens, UniProt P10826).
T2 sequence (P10826 1-448 isoform P10826-2): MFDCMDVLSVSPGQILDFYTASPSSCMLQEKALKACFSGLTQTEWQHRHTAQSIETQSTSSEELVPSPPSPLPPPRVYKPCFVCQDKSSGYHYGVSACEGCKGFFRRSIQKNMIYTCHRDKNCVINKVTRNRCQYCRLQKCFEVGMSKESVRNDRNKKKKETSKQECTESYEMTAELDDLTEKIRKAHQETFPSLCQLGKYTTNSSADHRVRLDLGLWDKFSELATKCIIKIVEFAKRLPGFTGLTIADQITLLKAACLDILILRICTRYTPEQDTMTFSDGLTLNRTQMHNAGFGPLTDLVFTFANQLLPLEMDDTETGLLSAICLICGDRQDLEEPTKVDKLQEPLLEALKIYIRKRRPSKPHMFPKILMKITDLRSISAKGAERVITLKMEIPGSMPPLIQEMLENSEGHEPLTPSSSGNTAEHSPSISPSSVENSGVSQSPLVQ
Also noted: expressed in transfected cells; host or cells: CV1 cells. The following applies: relative to all trans retinoic acid; read-out: Transactivation Assay Efficacy (% of RA activity) RARβ.
From the text: as §1, §2, §3

The next experiment deals with T3, RARγ (Homo sapiens, UniProt P13631).
T3 sequence (P13631 1-454): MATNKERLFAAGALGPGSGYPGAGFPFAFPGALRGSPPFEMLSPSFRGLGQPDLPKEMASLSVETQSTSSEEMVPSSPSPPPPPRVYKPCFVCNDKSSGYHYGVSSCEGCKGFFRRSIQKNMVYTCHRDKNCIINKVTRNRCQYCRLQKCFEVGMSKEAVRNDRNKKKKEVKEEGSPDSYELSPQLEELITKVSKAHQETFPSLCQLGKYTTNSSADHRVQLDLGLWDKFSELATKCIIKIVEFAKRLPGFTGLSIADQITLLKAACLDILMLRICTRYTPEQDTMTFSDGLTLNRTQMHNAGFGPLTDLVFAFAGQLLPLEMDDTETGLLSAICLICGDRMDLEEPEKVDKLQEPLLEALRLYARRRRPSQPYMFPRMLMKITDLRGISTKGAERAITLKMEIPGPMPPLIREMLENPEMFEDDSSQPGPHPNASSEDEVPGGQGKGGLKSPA
Also noted: expressed in transfected cells; host or cells: CV1 cells. To be noted: relative to all trans retinoic acid; read-out: Transactivation Assay Efficacy (% of RA activity) RARγ.
From the text: as §1, §2, §3

The test system of a further experiment is RXRβ. To be noted: relative to all trans retinoic acid.
From the text: as §1, §2

`Cc1csc(C2=CCC(C)(C)c3ccc(C#Cc4ccc(C(=O)O)cc4)cc32)n1` [Compound 31, 4-[(5,6-Dihydro-5,5-dimethyl-8-(4-methylthiazol-2-yl)-2-naphthalenyl)ethynyl]benzoic acid]: the Emax at RARα is 4%; at RARβ, 14%; at RARγ, 2%. For the same molecule, the “Transactivation Assay Efficacy (% of RA activity) RXRβ” value with RXRβ is on record as 8.00 % of RA activity.
The matching figures for `Cc1nc(C2=CCC(C)(C)c3ccc(C#Cc4ccc(C(=O)O)cc4)cc32)sc1C` [Compound 32]: 0%, 2%, 2% and 0.00 % of RA activity.
The like results for `Cc1ccc(C2=CCC(C)(C)c3ccc(C#Cc4ccc(C(=O)O)cc4)cc32)s1` [Compound 34, 4-[(5,6-Dihydro-5,5-dimethyl-8-(5-methyl-2-thienyl)-2-naphthalenyl)ethynyl]benzoic acid] were, in that order, 3%, 5%, 2% and 0.00 % of RA activity.
The matching figures for `Cc1ccc(C2=CCC(C)(C)c3ccc(C(=O)Nc4ccc(C(=O)O)cc4)cc32)cc1` [Compound 36, 4-[[(5,6-Dihydro-5,5-dimethyl-8-(4-methylphenyl)-2-naphthalenyl)carbonyl]amino]-benzoic acid]: 1%, 5%, 0% and 7.00 % of RA activity.
In the case of `Cc1ccc(C2=CCC(C)(C)c3ccc(C(=O)Oc4ccc(C(=O)O)cc4)cc32)cc1` [Compound 39, 4-[[(5,6-Dihydro-5,5-dimethyl-8-(4-methylphenyl)-2-naphthalenyl)carbonyl]oxy]-benzoic acid], the Emax on RARα came out at 1%; on RARβ, 7%; at RARγ, 9%. In addition, the “Transactivation Assay Efficacy (% of RA activity) RXRβ” value with RXRβ is 0.00 % of RA activity.
Turning to `Cc1ccc(C2=CCC(C)(C)c3ccc(C(=O)Nc4ccc(C(=O)O)c(F)c4)cc32)cc1` [Compound 41, 2-Fluoro-4-[[(5,6-dihydro-5,5-dimethyl-8-(4methylphenyl)-2-naphthalenyl)carbonyl]amino]-benzoic acid], the figures for the Emax at RARα, on RARβ and on RARγ were 3%, 5% and 6%, respectively. Besides, the “Transactivation Assay Efficacy (% of RA activity) RXRβ” value in the experiment with RXRβ is 0.00 % of RA activity.
The like results for `Cc1ccc(C2=CCC(C)(C)c3ccc(/C=C/c4ccc(C(=O)O)cc4)cc32)cc1` [Compound 45] were, in that order, 2%, 0%, 7% and 8.00 % of RA activity.
For `Cc1ccc(C2=CCC(C)(C)c3ccc(N=Nc4ccc(C(=O)O)cc4)cc32)cc1` [Compound 46b, 4-[(5,6-dihydro-5,5-dimethyl-8-(4-methylphenyl)-2-naphthalenyl)azo]-benzoic acid], the Emax on RARα amounted to 4%; at RARβ, 5%; on RARγ, 3%. Also, the “Transactivation Assay Efficacy (% of RA activity) RXRβ” value with RXRβ is 0.00 % of RA activity.
The matching figures for `CC(/C=C/C=C(\C)c1ccc2c(c1)C(c1ccc(C)cc1)=CCC2(C)C)=C\C(=O)O` [Compound 52, (E,E,E)-3-methyl-7-(5,6-dihydro-5,5-dimethyl-8-(4-methylphenyl)-2-naphthalenyl)-2,4,6-octatrienoic acid]: 0%, 15%, 3% and 0.00 % of RA activity.
The like results for `Cc1ccc(C2=CCC(C)(C)c3ccc(C#Cc4ccc(C(=O)O)cc4)cc32)cc1` [Compound 60, 4-[(5,6-dihydro-5,5-dimethyl-8-(4-methylphenyl)-2-naphthalenyl)ethynyl]benzoic acid] were, in that order, 0%, 1%, 4% and 0.00 % of RA activity.
